A short description of data set [1]: Partition coefficient in n-octanol/phosphate buffer, at pH 7.4. The data set is classed as physicochemical.
The species named for the next data set is Homo sapiens. Kind of data set: Concentration required for inhibitory activity against human PMNLs chemotaxis. Type of data set: functional, organism-based. Conditions: PMNL.
Data set [2] relates to Cavia porcellus. Kind of data set: In vivo inhibitory activity against LTB4-induced bronchoconstriction of guinea pig at dose of 5 mg/kg after 2 min of iv administration; Active. Type of data set: functional, organism-based. Details: dose 5 mg/kg.
The test system of data set [3] is Cavia porcellus. Kind of data set: In vivo inhibitory activity against LTB4-induced bronchoconstriction of guinea pig at dose of 5 mg/kg after 10 min of iv administration; Active. Type of data set: functional, organism-based. More on the design: dose 5 mg/kg.
The subject of data set [4] is Cavia porcellus. The data set can be described thus: In vivo inhibitory activity against LTB4-induced bronchoconstriction of guinea pig at dose of 5 mg/kg after 10 min of iv administration; relatively active. Details: dose 5 mg/kg. Type of data set: functional, organism-based.
Data set [5] relates to Cavia porcellus. The data set can be described thus: In vivo inhibitory activity against LTB4-induced bronchoconstriction of guinea pig at dose of 5 mg/kg after 2 min of iv administration; relatively active. The data set is classed as functional, organism-based. More on the design: dose 5 mg/kg.
In data set [6] the test system is Cavia porcellus. Kind of data set: In vivo inhibitory activity against LTB4-induced bronchoconstriction of guinea pig at dose of 5 mg/kg after 30 min of iv administration; Active. The data set is classed as functional, organism-based. More on the design: dose 5 mg/kg.
In data set [7] the test system is Cavia porcellus. Kind of data set: In vivo inhibitory activity against LTB4-induced bronchoconstriction of guinea pig at dose of 40 mg/kg after 60 min of po administration; relatively active. Details: dose 40 mg/kg. Type of data set: functional, organism-based.
In data set [8] the test system is Cavia porcellus. Kind of data set: In vivo inhibitory activity against LTB4-induced bronchoconstriction of guinea pig at dose of 40 mg/kg after 60 min of po administration; Active. The data set is classed as functional, organism-based. Details: dose 40 mg/kg.

Usually logD stands for the decadic logarithm of the distribution of all forms, ionised or not, between an organic phase and buffer at a given pH. Lower therefore signals lower lipophilicity. The IC50 is the concentration needed to halve the response being measured. Low readings indicate greater potency, high ones weaker potency.

The source made the active and inactive calls. The calls are words filed in the database; no cut-off is given here.

In the case of `CCc1cc(C(C)=O)c(O)cc1OCc1cccc(C(=O)Nc2cccc(CC(=O)O)n2)n1`, in data set [1], the logD was found to be 1.1. In the data set listed under Homo sapiens, this compound showed a concentration for half-maximal inhibition (IC50) of 800 nM.
Compound `CCc1cc(C(C)=O)c(O)cc1OCc1cccc(C(=O)N(CC)CCO)n1` returned a logD in data set [1] of 2.8. The outcome in the data set with Cavia porcellus [2] was Active. Further, the IC50 in the data set listed under Homo sapiens was found to be 1000 nM.
In turn, `CCc1cc(C(C)=O)c(O)cc1OCc1cccc(C(=O)Nc2nc(CC(=O)O)cs2)c1` registered an IC50 in the data set filed under Homo sapiens of 5000 nM.
On the same count and under the same terms, in the case of `CCc1cc(C(C)=O)c(O)cc1OCc1nccc(C(=O)Nc2nc(CC(=O)O)cs2)n1` it was 3000 nM; in that of `CCc1cc(C(C)=O)c(O)cc1OCc1cccc(C(=O)NCC(=O)O)n1`, 12000 nM.
In turn, `CCc1cc(C(C)=O)c(O)cc1OCc1cccc(C(=O)NCCC(=O)O)n1` had a logD in [1] of 0.7. Moreover, the outcome in the data set with Cavia porcellus [3] and in the data set on Cavia porcellus [2] was Active. The same compound gave an IC50 in the data set filed under Homo sapiens of 1000 nM.
In data set [1], `CCc1cc(C(C)=O)c(O)cc1OCc1cccc(C(=O)N[C@@H](CC(=O)O)C(=O)O)n1` returned a logD of -1.8. Besides, the Activity entry in the data set with Cavia porcellus [4] and in the data set with Cavia porcellus [5] was “Weak activity” in each case. In the data set listed under Homo sapiens, this compound showed an IC50 of 900 nM.
For `CCCc1c(OCCCOc2ccc(C(C)=O)c(OC)c2CCC)ccc2c1OC(C(=O)O)CC2` (stereo not drawn) [SC-41390], the IC50 in the data set filed under Homo sapiens stood at 3300 nM.
In data set [1], `CCc1cc(C(C)=O)c(O)cc1OCc1cccc(C(=O)N[C@@H](CO)C(=O)O)n1` had a logD of -0.3. The outcome in the data set with Cavia porcellus [3], in the data set on Cavia porcellus [6] and in the data set on Cavia porcellus [2] was Active. Besides, in the data set with Cavia porcellus [7], the Activity result was “Weak activity”. Moreover, in the data set listed under Homo sapiens, the IC50 was determined as 300 nM.
`CCc1cc(C(C)=O)c(O)cc1OCc1cccc(C(=O)Nc2cccc(CC(=O)O)[n+]2[O-])n1` came in with a logD in data set [1] of 0.8. Further, the outcome in the data set with Cavia porcellus [3], in the data set with Cavia porcellus [6] and with Cavia porcellus [2] was Active. In addition, in the data set listed under Homo sapiens, the IC50 stood at 20 nM.
Consider `CCc1cc(C(C)=O)c(O)cc1OCc1cncc(C(=O)Nc2nc(CC(=O)O)cs2)n1`, for which the logD in data set [1] turned out to be 0.6. Moreover, the Activity result in the data set with Cavia porcellus [4] was “Weak activity”. Further, in the data set on Cavia porcellus [2], the outcome was Active. Further, the 50% inhibitory concentration (IC50) in the data set filed under Homo sapiens was 10000 nM.
In the data set listed under Homo sapiens, `CCc1cc(C(C)=O)c(O)cc1OCc1ccc(C(=O)Nc2nc(CC(=O)O)cs2)cn1` showed an IC50 of 700 nM.
As for `CCc1cc(C(C)=O)c(O)cc1OCc1cccc(C(=O)Nc2nc(CC(=O)O)cs2)n1`, the logD in [1] is 1.9. In addition, the Activity result with Cavia porcellus [4] is “Weak activity”. For the same compound, the IC50 in the data set listed under Homo sapiens was 300 nM.
Compound `CCc1cc(C(C)=O)c(O)cc1OCc1cccc(C(=O)NCCO)n1` registered an IC50 in the data set filed under Homo sapiens of 15000 nM.
For `CCc1cc(C(C)=O)c(O)cc1OCc1cccc(C(=O)N(CC)CCC(=O)O)n1`, the logD in [1] was found to be 0.1. In addition, the result in the data set with Cavia porcellus [3], with Cavia porcellus [6], in the data set with Cavia porcellus [2] and in the data set on Cavia porcellus [8] was Active. Also, inhibition in the data set listed under Homo sapiens was half-maximal at 300 nM (IC50).
